From patent US10807970B2 (priority 2016, dated 2020)

Molecular target: human σ1 receptor (Homo sapiens, UniProt Q99720)
Assay: Human σ1 receptor radioligand assay ([3H](+)-pentazocine, transfected HEK-293 membranes)
Type: binding
Conditions: one class symbol for both Ki-σ1 (human σ1 receptor, A1) and Ki-μ (human μ-opioid receptor, A2); read-out: μ and σ1 dual binding
How it was run: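 Membranes from HEK-293 cells transfected with human σ1 receptor (7 μg) incubated with 5 nM [3H](+)-pentazocine in 50 mM Tris-HCl pH 8, 120 min at 37° C. Non-specific binding defined with 10 μM haloperidol. Bound radioligand separated by filtration, washed with ice-cold 10 mM Tris-HCl pH 7.4, and counted by scintillation.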

Chain of human σ1 receptor (Q99720 whole entry): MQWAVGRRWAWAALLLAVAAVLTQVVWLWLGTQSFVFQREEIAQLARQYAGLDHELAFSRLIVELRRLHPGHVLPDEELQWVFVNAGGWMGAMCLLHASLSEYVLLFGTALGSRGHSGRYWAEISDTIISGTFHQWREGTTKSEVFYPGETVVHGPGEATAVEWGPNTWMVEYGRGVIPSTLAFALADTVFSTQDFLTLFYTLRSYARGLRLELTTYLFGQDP

## CC[C@@]1(N2CCN(Cc3ccc(C#N)cc3)CC2)CCO[C@@H](C)C1 [Example 250, 4-((4-((2S,4R)-4-ethyl-2-methyltetrahydro-2H-pyran-4-yl)piperazin-1-yl)methyl)benzonitrile]
  Ki: > 500 nM

## CC[C@]1(N2CCN(Cc3ccc(C#N)cc3)CC2)CCO[C@H](C)C1 [Example 251, 4-((4-((2R,4S)-4-ethyl-2-methyltetrahydro-2H-pyran-4-yl)piperazin-1-yl)methyl)benzonitrile]
  Ki: > 500 nM
